tested on: K562; assay: cells; conditions: Homo sapiens, K562, 48 h
Description: Cytotoxicity against human K562 cells after 48 hrs by MTT assay

Row | EC50 [µM] | Structure (SMILES)
1 | > 100 | O=C(O)c1cccc(-c2ccc(/C=c3\sc4n(c3=O)C(c3cccc(F)c3)C3=C(N=4)c4ccccc4CC3)o2)c1 (centres undefined)
2 | > 100 | COc1cccc(C2C3=C(N=c4s/c(=C\c5ccc(-c6cccc(C(=O)O)c6)o5)c(=O)n42)c2ccccc2CC3)c1 (centres undefined)
3 | 72.3 | COc1ccc(C2C3=C(N=c4s/c(=C\c5ccc(-c6cccc(C(=O)O)c6)o5)c(=O)n42)c2ccccc2CC3)cc1 (centres undefined)

tested on: OVCAR-3; assay: Cytotoxicity against human OVCAR-3 cells after 48 hrs by MTT assay; conditions: OVCAR-3, 48 h

Row | Structure (SMILES) | EC50 [µM]
4 | O=C(O)c1cccc(-c2ccc(/C=c3\sc4n(c3=O)C(c3cccc(F)c3)C3=C(N=4)c4ccccc4CC3)o2)c1 (centres undefined) | 12
5 | COc1cccc(C2C3=C(N=c4s/c(=C\c5ccc(-c6cccc(C(=O)O)c6)o5)c(=O)n42)c2ccccc2CC3)c1 (centres undefined) | 7.91
6 | COc1ccc(C2C3=C(N=c4s/c(=C\c5ccc(-c6cccc(C(=O)O)c6)o5)c(=O)n42)c2ccccc2CC3)cc1 (centres undefined) | 7.21

target: Apoptosis regulator Bcl-2 (Homo sapiens, UniProt P10415); assay: Displacement of FITC labeled BH3 peptide from His-tagged human BCL2 after 1 hr by fluorescence polarization assay; conditions: not given
Sequence (P10415 whole entry): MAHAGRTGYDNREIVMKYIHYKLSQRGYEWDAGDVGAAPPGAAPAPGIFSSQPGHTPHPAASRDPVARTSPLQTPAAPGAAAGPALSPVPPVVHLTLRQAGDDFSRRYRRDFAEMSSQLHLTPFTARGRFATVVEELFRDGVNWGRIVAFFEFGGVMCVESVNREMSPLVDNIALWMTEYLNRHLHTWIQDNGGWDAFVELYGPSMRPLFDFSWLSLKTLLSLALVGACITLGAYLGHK

Row | IC50 [µM] | Structure (SMILES)
7 | 3.2 | O=C(O)c1cccc(-c2ccc(/C=c3\sc4n(c3=O)C(c3cccc(F)c3)C3=C(N=4)c4ccccc4CC3)o2)c1 (centres undefined)
8 | 11.1 | COc1cccc(C2C3=C(N=c4s/c(=C\c5ccc(-c6cccc(C(=O)O)c6)o5)c(=O)n42)c2ccccc2CC3)c1 (centres undefined)
9 | 8 | COc1ccc(C2C3=C(N=c4s/c(=C\c5ccc(-c6cccc(C(=O)O)c6)o5)c(=O)n42)c2ccccc2CC3)cc1 (centres undefined)

target: T1, Bcl-2-like protein 1 (Homo sapiens, UniProt Q07817); assay: Inhibition of human Bcl-XL; conditions: not given
T1 sequence (Q07817 whole entry): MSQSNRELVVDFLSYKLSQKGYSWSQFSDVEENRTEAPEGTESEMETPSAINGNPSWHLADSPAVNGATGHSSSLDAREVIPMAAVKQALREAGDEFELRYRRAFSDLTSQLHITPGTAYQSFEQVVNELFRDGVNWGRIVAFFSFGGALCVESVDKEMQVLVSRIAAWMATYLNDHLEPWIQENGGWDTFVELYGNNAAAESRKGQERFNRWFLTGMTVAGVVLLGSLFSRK

Row | IC50 [µM] | Structure (SMILES)
10 | 3 | O=C(O)c1cccc(-c2ccc(/C=c3\sc4n(c3=O)C(c3cccc(F)c3)C3=C(N=4)c4ccccc4CC3)o2)c1 (centres undefined)
11 | 7.3 | COc1cccc(C2C3=C(N=c4s/c(=C\c5ccc(-c6cccc(C(=O)O)c6)o5)c(=O)n42)c2ccccc2CC3)c1 (centres undefined)
12 | 6.9 | COc1ccc(C2C3=C(N=c4s/c(=C\c5ccc(-c6cccc(C(=O)O)c6)o5)c(=O)n42)c2ccccc2CC3)cc1 (centres undefined)

tested on: PC-3; assay: Cytotoxicity against human PC3 cells after 48 hrs by MTT assay; format: functional, cell-based; conditions: not given

Row | Structure (SMILES) | Activity
13 | O=C(O)c1cccc(-c2ccc(/C=c3\sc4n(c3=O)C(c3cccc(F)c3)C3=C(N=4)c4ccccc4CC3)o2)c1 (centres undefined) | Dose-dependent effect
14 | COc1cccc(C2C3=C(N=c4s/c(=C\c5ccc(-c6cccc(C(=O)O)c6)o5)c(=O)n42)c2ccccc2CC3)c1 (centres undefined) | Dose-dependent effect
15 | COc1ccc(C2C3=C(N=c4s/c(=C\c5ccc(-c6cccc(C(=O)O)c6)o5)c(=O)n42)c2ccccc2CC3)cc1 (centres undefined) | Dose-dependent effect

same assay, conditions: PC-3, 48 h

Row | Structure (SMILES) | EC50 [µM]
16 | O=C(O)c1cccc(-c2ccc(/C=c3\sc4n(c3=O)C(c3cccc(F)c3)C3=C(N=4)c4ccccc4CC3)o2)c1 (centres undefined) | > 100
17 | COc1cccc(C2C3=C(N=c4s/c(=C\c5ccc(-c6cccc(C(=O)O)c6)o5)c(=O)n42)c2ccccc2CC3)c1 (centres undefined) | 29.5
18 | COc1ccc(C2C3=C(N=c4s/c(=C\c5ccc(-c6cccc(C(=O)O)c6)o5)c(=O)n42)c2ccccc2CC3)cc1 (centres undefined) | 12

tested on: not listed separately; assay: Cytotoxicity against human Bel7404 cells after 48 hrs by MTT assay; conditions: BEL-7404, 48 h

Row | Structure (SMILES) | EC50 [µM]
19 | O=C(O)c1cccc(-c2ccc(/C=c3\sc4n(c3=O)C(c3cccc(F)c3)C3=C(N=4)c4ccccc4CC3)o2)c1 (centres undefined) | 51.3
20 | COc1cccc(C2C3=C(N=c4s/c(=C\c5ccc(-c6cccc(C(=O)O)c6)o5)c(=O)n42)c2ccccc2CC3)c1 (centres undefined) | > 100
21 | COc1ccc(C2C3=C(N=c4s/c(=C\c5ccc(-c6cccc(C(=O)O)c6)o5)c(=O)n42)c2ccccc2CC3)cc1 (centres undefined) | 24.7

tested on: HepG2; assay: cells; conditions: Homo sapiens, HepG2, 48 h
Description: Cytotoxicity against human HepG2 cells after 48 hrs by MTT assay

Row | EC50 [µM] | Structure (SMILES)
22 | 15.4 | O=C(O)c1cccc(-c2ccc(/C=c3\sc4n(c3=O)C(c3cccc(F)c3)C3=C(N=4)c4ccccc4CC3)o2)c1 (centres undefined)
23 | > 100 | COc1cccc(C2C3=C(N=c4s/c(=C\c5ccc(-c6cccc(C(=O)O)c6)o5)c(=O)n42)c2ccccc2CC3)c1 (centres undefined)
24 | > 100 | COc1ccc(C2C3=C(N=c4s/c(=C\c5ccc(-c6cccc(C(=O)O)c6)o5)c(=O)n42)c2ccccc2CC3)cc1 (centres undefined)

target: T1, Bcl-2-like protein 1; assay: Displacement of FITC-labeled BH3 peptide from human Bcl-XL after 1 hr by fluorescence polarization assay; conditions: not given

Row | IC50 [µM] | Structure (SMILES)
25 | 3 | O=C(O)c1cccc(-c2ccc(/C=c3\sc4n(c3=O)C(c3cccc(F)c3)C3=C(N=4)c4ccccc4CC3)o2)c1 (centres undefined)
26 | 7.3 | COc1cccc(C2C3=C(N=c4s/c(=C\c5ccc(-c6cccc(C(=O)O)c6)o5)c(=O)n42)c2ccccc2CC3)c1 (centres undefined)
27 | 6.9 | COc1ccc(C2C3=C(N=c4s/c(=C\c5ccc(-c6cccc(C(=O)O)c6)o5)c(=O)n42)c2ccccc2CC3)cc1 (centres undefined)

tested on: A2780; assay: cells; conditions: Homo sapiens, A2780, 48 h
Description: Cytotoxicity against human A2780 cells after 48 hrs by MTT assay

Row | EC50 [µM] | Structure (SMILES)
28 | 5.81 | O=C(O)c1cccc(-c2ccc(/C=c3\sc4n(c3=O)C(c3cccc(F)c3)C3=C(N=4)c4ccccc4CC3)o2)c1 (centres undefined)
29 | 13.8 | COc1cccc(C2C3=C(N=c4s/c(=C\c5ccc(-c6cccc(C(=O)O)c6)o5)c(=O)n42)c2ccccc2CC3)c1 (centres undefined)
30 | 13.1 | COc1ccc(C2C3=C(N=c4s/c(=C\c5ccc(-c6cccc(C(=O)O)c6)o5)c(=O)n42)c2ccccc2CC3)cc1 (centres undefined)

target: Induced myeloid leukemia cell differentiation protein Mcl-1 homolog (Mus musculus, UniProt P97287); assay: Displacement of FITC-labeled BH3 peptide from GST-tagged mouse Mcl1 after 1 hr by fluorescence polarization assay; conditions: not given
Sequence (P97287 whole entry): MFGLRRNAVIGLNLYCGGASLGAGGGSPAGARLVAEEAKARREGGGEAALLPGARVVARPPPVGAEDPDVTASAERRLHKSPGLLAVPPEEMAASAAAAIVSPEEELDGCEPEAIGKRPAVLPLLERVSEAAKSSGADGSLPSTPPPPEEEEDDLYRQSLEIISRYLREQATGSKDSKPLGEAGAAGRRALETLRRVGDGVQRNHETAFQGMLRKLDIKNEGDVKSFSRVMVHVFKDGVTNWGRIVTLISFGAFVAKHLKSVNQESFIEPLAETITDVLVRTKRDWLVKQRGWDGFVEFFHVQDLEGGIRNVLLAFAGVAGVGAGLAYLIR

Row | IC50 [µM] | Structure (SMILES)
31 | 8.6 | O=C(O)c1cccc(-c2ccc(/C=c3\sc4n(c3=O)C(c3cccc(F)c3)C3=C(N=4)c4ccccc4CC3)o2)c1 (centres undefined)
32 | 19.2 | COc1cccc(C2C3=C(N=c4s/c(=C\c5ccc(-c6cccc(C(=O)O)c6)o5)c(=O)n42)c2ccccc2CC3)c1 (centres undefined)
33 | 18.6 | COc1ccc(C2C3=C(N=c4s/c(=C\c5ccc(-c6cccc(C(=O)O)c6)o5)c(=O)n42)c2ccccc2CC3)cc1 (centres undefined)

target: Bcl-2-like protein 1 (Homo sapiens, UniProt Q07817, Y101A); assay: Binding affinity to human Bcl-XL Y101A mutant by surface plasma resonance based biosensor system; conditions: not given
Sequence (Q07817 whole entry Y101A): as the sequence (Q07817 whole entry) above, with Y101A counted along it

Row | Kd [µM] | Structure (SMILES)
34 | > 1000 | COc1ccc(C2C3=C(N=c4s/c(=C\c5ccc(-c6cccc(C(=O)O)c6)o5)c(=O)n42)c2ccccc2CC3)cc1 (centres undefined)

— ChEMBL document CHEMBL1157133, “Design, synthesis, and interaction study of quinazoline-2(1H)-thione derivatives as novel potential Bcl-xL inhibitors” (J Med Chem, 2010)
